Results: US20240285670A1, “THERAPEUTIC TREATMENT OF TUMORS BY BLOCKING THE HEME SYNTHESIS-EXPORT AXIS” (Università degli Studi di Torino, priority 2021, published 2024)

How the values were obtained:
lung tumor LLC cells = experiment: LLC cell viability (CellTiter-Fluor) as readout of proliferation; type: cell-based, murine; conditions: 5 mM ALA at day 0, no medium refresh
C80 cells = experiment: Flow cytometric analysis of apoptosis in C80 cells; type: cell-based, human; conditions: FLVCR1a-silenced vs scramble shRNA, synchronized C80 cells
Source text: (A) Proliferation of Caco2 cells assessed by crystal violet staining at the indicated days; bar=1000 μm. […] Staining quantification is reported in the bar graph as percentage of crystal violet stained area. Data represent mean±SEM, n=4. For statistical analyses, a two-way analysis of variance was used, followed by the Bonferroni correction for multiple group comparisons; *=p<0.05, ***=p<0.001. (B) Caco2 cells viability the day of plating (day 0) and three days after plaiting (day 3). The measure is considered a readout of cell proliferation. […] Data represent mean±SEM, n=3 wells. For statistical analyses, a two-way analysis of variance was used, followed by the Bonferroni correction for multiple group comparisons; *=p<0.05, **=p<0.01. (C, D, E) Representative flow cytometric analyses of apoptosis in synchronized Caco2 (C), SKCO1 (D) and C80 (E) cells. […] Data represent mean±SEM, n=4 wells pooled from two independent experiments. For statistical analyses, an unpaired Student's t-test was used; *=p<0.05, **=p<0.01. […]
Stained cells were analyzed using a FACSCanto II cytofluorimeter and processed with BD FACSDIVA Software v8.1 (BD Biosciences, Milan, IT; http://www.bdbiosciences.com/instruments/software/facsdiva/index.jsp/ RRID:SCR_001456), acquiring at least 10,000 events per sample or 25,000 cells per sample for cell cycle experiments.

BTECs = experiment: Wound healing assay (BTECs migration); type: cell-based, human; conditions: FLVCR1a-silenced vs scramble shRNA BTECs
Source text: (A) BTECs counting, as a readout of cell proliferation, at the indicated time points. […] Data represent mean±SEM, n=4. For statistical analyses, a two-way analysis of variance was used, followed by the Bonferroni correction for multiple group comparisons; ***p<0.001. (B) Quantification of BTECs migration rate in wound-healing assay. […] Data represent mean±SEM, n=32. For statistical analyses, a nonparametric unpaired Mann-Whitney test was used; ***p<0.001. (C) In vitro tubulogenesis assay on matrigel. […] The number of nodes counted within the neo-formed vascular networks is shown. Data represent mean±SEM; n=10. For statistical analyses, a nonparametric unpaired Mann-Whitney test was used; **p<0.01.
To evaluate cell motility, BTECs were grown to confluence in 24-well plates coated with 1% Gelatin from bovine skin (Sigma-Aldrich, St. Louis, MO USA, catalog n° G9391). […] Cell migration into the wound was monitored using a Nikon Eclipse T-E microscope with a 4× objective. […] Three separate wells were used for each condition and, in each well, at least six fields were analysed for each condition. Cell migration into the wound was assessed using Fiji open source software (Schindelin et al., 2012) (http://fiji.sc/ RRID:SCR_002285), by measuring the distance between the two sides of the wound at each time point. Data were expressed as percentage of cell migration. […]

| Compound | cell proliferation (cell viability) (lung tumor LLC cells) | apoptosis (C80 cells) | migratory rate (BTECs) |
| --- | --- | --- | --- |
| Cl.NCC(=O)CCC(=O)O [5-ALA, 5-Aminolevulinic acid hydrochloride] | significantly reduced |  |  |
| FLVCR1a shRNA: shRNA specifically down-regulating FLVCR1a without targeting FLVCR1b; pLKO.1 lentiviral clone TRCN0000059599, antisense SEQ ID No.: 2 (antisense TTGCTAATGATGCTGTACTGG; sense CCAGTACAGCATCATTAGCAA) |  | increased apoptosis | reduction of the migratory rate |
